This is an account of results in ChEMBL document CHEMBL3046537, “Tautomeric origin of dual effects of N1-nicotinoyl-3-(4-hydroxy-3-methyl phenyl)-5-[(sub)phenyl]-2-pyrazolines on bacterial and viral strains: POM analyses as new efficient bioinformatics platform to predict and optimize bioactivity of drugs” (Med Chem Res, 2013).

A word on the IC50: it is the midpoint of a concentration-inhibition curve.

Test [1] concerns Candida albicans. Briefly: Antifungal activity against Candida albicans ATCC 10231. Format: functional.
In test [2] the test system is Human immunodeficiency virus. The test is described as follows: Antiviral activity against Human immunodeficiency virus. Format: functional, organism-based. Conditions: Human immunodeficiency virus 1.
The subject of a further test is Nakaseomyces glabratus. Briefly: Antifungal activity against Candida glabrata H05. The class given is functional.
The next test concerns Aspergillus fumigatus. Briefly: Antifungal activity against Aspergillus fumigatus. The class given is functional.
The subject of test [3] is Human immunodeficiency virus. The test is described as follows: Antiviral activity against Human immunodeficiency virus assessed as protection against virus-induced cytopathogenicity. The class given is functional. The arrangement: concentration or dose not given beside the values.
A further test concerns Escherichia coli. Briefly: Antibacterial activity against Escherichia coli 2231. The class given is functional.
The test system of a further test is Pichia kudriavzevii. The test is described as follows: Antifungal activity against Pichia kudriavzevii G03. Format: functional.
Test [4] relates to Candida albicans. The test is described as follows: Antifungal activity against Candida albicans. Format: functional.
The test system of another test is Staphylococcus aureus. Briefly: Antibacterial activity against Staphylococcus aureus 209P. The class given is functional.

Turning to `COc1ccc(C2C=C(c3ccc(O)c(C)c3)NN2C(=O)c2ccncc2)cc1OC` (stereo not given), the “inhibition zone (IZ)” value in the test on Candida albicans [1] was less than 5 mm; with Nakaseomyces glabratus, less than 5 mm; in the test with Aspergillus fumigatus, 10 mm; with Escherichia coli, 10 mm; in the test with Pichia kudriavzevii it was less than 5 mm; in the test with Candida albicans [4], 5 mm. Further, the “inhibition zone (IZ)” value in the test on Staphylococcus aureus came out at 10 mm. In [2], this molecule showed an IC50 of more than 14 µM. Also, in test [3], the Activity was determined as 24%.

For `CC1COc2c(N3CCN(C)CC3)c(F)cc3c(=O)c(C(=O)O)cn1c23` (stereo not given) [OFLOXACIN], the “inhibition zone (IZ)” value in the test on Candida albicans [1] is listed as less than 5 mm; in the test with Nakaseomyces glabratus, less than 5 mm; with Aspergillus fumigatus, less than 5 mm; in the test on Escherichia coli, more than 15 mm; in the test with Pichia kudriavzevii, less than 5 mm; with Candida albicans [4], less than 5 mm. Besides, the “inhibition zone (IZ)” value with Staphylococcus aureus is more than 15 mm.

On to `Cc1cc(C2=CC(c3ccc(N(C)C)cc3)N(C(=O)c3ccncc3)N2)ccc1O` (stereo not given), for which the “inhibition zone (IZ)” value in the test on Candida albicans [1] is 10 mm; in the test on Nakaseomyces glabratus it was 10 mm; in the test with Aspergillus fumigatus, more than 15 mm; with Escherichia coli, more than 15 mm; in the test with Pichia kudriavzevii it was 5 mm; in the test with Candida albicans [4], more than 15 mm. For the same molecule, the “inhibition zone (IZ)” value with Staphylococcus aureus is on record as more than 15 mm. In test [2], this molecule displayed an IC50 of 6 µM. Besides, in [3], the Activity is 102%.

As for `Cc1ccnc2c1NC(=O)c1cccnc1N2C1CC1` [NEVIRAPINE], the half-inhibitory concentration (IC50) in test [2] is 0.1 µM. Also, the Activity in test [3] was found to be 98%.

In the case of `Cc1cc(C2=CC(c3c(Cl)cccc3Cl)N(C(=O)c3ccncc3)N2)ccc1O` (stereo not given), the “inhibition zone (IZ)” value in the test on Candida albicans [1] is on record as more than 15 mm; with Nakaseomyces glabratus, 10 mm; in the test on Aspergillus fumigatus it was more than 15 mm; with Escherichia coli it was more than 15 mm; in the test with Pichia kudriavzevii, 5 mm; in the test on Candida albicans [4] it was more than 15 mm. In addition, the “inhibition zone (IZ)” value with Staphylococcus aureus is more than 15 mm. The half-inhibitory concentration (IC50) in test [2] is more than 14 µM. The Activity in test [3] turned out to be 24%.

Take `OC(Cn1cncn1)(Cn1cncn1)c1ccc(F)cc1F` [FLUCONAZOLE]: the “inhibition zone (IZ)” value in the test on Candida albicans [1] is recorded as more than 15 mm; in the test with Nakaseomyces glabratus, more than 15 mm; in the test with Aspergillus fumigatus, more than 15 mm; with Escherichia coli, less than 5 mm; in the test with Pichia kudriavzevii, more than 15 mm; in the test on Candida albicans [4] it was more than 15 mm. Besides, in the test with Staphylococcus aureus, the “inhibition zone (IZ)” value is on record as less than 5 mm.

As for `Cc1cc(C2=CC(c3cccc([N+](=O)[O-])c3)N(C(=O)c3ccncc3)N2)ccc1O` (stereo not given), the “inhibition zone (IZ)” value is less than 5 mm with Candida albicans [1]; less than 5 mm in the test with Nakaseomyces glabratus; more than 15 mm with Aspergillus fumigatus; more than 15 mm in the test on Escherichia coli; less than 5 mm in the test with Pichia kudriavzevii; less than 5 mm in the test on Candida albicans [4]. Moreover, the “inhibition zone (IZ)” value in the test on Staphylococcus aureus was more than 15 mm. For the same molecule, the IC50 in test [2] is more than 11 µM. Moreover, in [3], the Activity came to 40%.

Regarding `COc1cc(C2C=C(c3ccc(O)c(C)c3)NN2C(=O)c2ccncc2)cc(OC)c1OC` (stereo not given), the “inhibition zone (IZ)” value was less than 5 mm with Candida albicans [1]; less than 5 mm in the test on Nakaseomyces glabratus; 5 mm in the test with Aspergillus fumigatus; 5 mm in the test on Escherichia coli; less than 5 mm in the test with Pichia kudriavzevii; 5 mm with Candida albicans [4]. Moreover, in the test with Staphylococcus aureus, the “inhibition zone (IZ)” value is recorded as 5 mm. The same molecule displayed a half-maximal inhibitory concentration (IC50) in test [2] of more than 66 µM. Further, the Activity in test [3] was determined as 26%.

`Cc1cc(C2=CC(c3ccc(F)cc3)N(C(=O)c3ccncc3)N2)ccc1O` (stereo not given): the “inhibition zone (IZ)” value with Candida albicans [1] was less than 5 mm; in the test on Nakaseomyces glabratus, less than 5 mm; in the test with Aspergillus fumigatus, more than 15 mm; in the test with Escherichia coli it was more than 15 mm; in the test with Pichia kudriavzevii it was less than 5 mm; with Candida albicans [4], more than 15 mm. In the test on Staphylococcus aureus, the “inhibition zone (IZ)” value is more than 15 mm. In test [2], this molecule came in with an IC50 of more than 68 µM. In [3], the Activity turned out to be 8%.

For `COc1ccc(C2C=C(c3ccc(O)c(C)c3)NN2C(=O)c2ccncc2)cc1` (stereo not given), the “inhibition zone (IZ)” value in the test on Candida albicans [1] was less than 5 mm; in the test on Nakaseomyces glabratus it was less than 5 mm; in the test with Aspergillus fumigatus, 5 mm; in the test on Escherichia coli, 10 mm; in the test on Pichia kudriavzevii it was less than 5 mm; with Candida albicans [4], less than 5 mm. Also, the “inhibition zone (IZ)” value in the test with Staphylococcus aureus came to 5 mm. In [2], the concentration for half-maximal inhibition (IC50) is more than 125 µM. For the same molecule, the Activity in [3] is reported as 24%.

Turning to `Cc1cc(C2=CC(c3ccccc3Cl)N(C(=O)c3ccncc3)N2)ccc1O` (stereo not given), the “inhibition zone (IZ)” value in the test on Candida albicans [1] is listed as less than 5 mm; in the test with Nakaseomyces glabratus it was less than 5 mm; with Aspergillus fumigatus, more than 15 mm; in the test with Escherichia coli, more than 15 mm; in the test on Pichia kudriavzevii, less than 5 mm; in the test with Candida albicans [4] it was less than 5 mm. Moreover, the “inhibition zone (IZ)” value with Staphylococcus aureus is more than 15 mm. The half-inhibitory concentration (IC50) in test [2] is more than 53 µM. Also, the Activity in test [3] turned out to be 24%.

Regarding `Cc1cc(C2=CC(c3ccco3)N(C(=O)c3ccncc3)N2)ccc1O` (stereo not given), the “inhibition zone (IZ)” value with Candida albicans [1] was less than 5 mm; with Nakaseomyces glabratus, less than 5 mm; with Aspergillus fumigatus, more than 15 mm; with Escherichia coli, more than 15 mm; with Pichia kudriavzevii, less than 5 mm; in the test with Candida albicans [4] it was 5 mm. Moreover, the “inhibition zone (IZ)” value in the test on Staphylococcus aureus is recorded as more than 15 mm. The midpoint of inhibition in test [2], the IC50, lay at 7 µM. Further, the Activity in [3] stood at 86%.

As for `Cc1cc(C2=CC(c3ccccc3)N(C(=O)c3ccncc3)N2)ccc1O` (stereo not given), the “inhibition zone (IZ)” value with Candida albicans [1] is recorded as less than 5 mm; in the test with Nakaseomyces glabratus, less than 5 mm; with Aspergillus fumigatus, 5 mm; with Escherichia coli it was 5 mm; in the test on Pichia kudriavzevii it was less than 5 mm; in the test with Candida albicans [4], less than 5 mm. Also, the “inhibition zone (IZ)” value with Staphylococcus aureus is on record as 5 mm. The molecule also came in with a half-inhibitory concentration (IC50) in test [2] of more than 11 µM. Besides, the Activity in test [3] is 13%.

With `Cc1cc(C2=CC(c3ccc(Cl)cc3)N(C(=O)c3ccncc3)N2)ccc1O` (stereo not given), the “inhibition zone (IZ)” value in the test with Candida albicans [1] is less than 5 mm; in the test on Nakaseomyces glabratus, less than 5 mm; in the test on Aspergillus fumigatus, more than 15 mm; in the test with Escherichia coli it was more than 15 mm; with Pichia kudriavzevii it was less than 5 mm; in the test with Candida albicans [4], more than 15 mm. Besides, the “inhibition zone (IZ)” value with Staphylococcus aureus is more than 15 mm. This molecule showed an IC50 in [2] of more than 36 µM. Also, the Activity in test [3] was 42%.
